Source: patent US20250057191A1, “METHODS OF IMPROVING THE NUTRITIONAL STATUS OF IMMUNE STRESSED ANIMALS” (ELANCO US INC., priority 2021, published 2025)
Marks after values point to notes of the source that are not given here.

Key:
serum vitamin A = experiment: Example 4: serum vitamin A in nursery pigs fed full or partial compositions of Combo, weaning to end of nursery; assay type: in vivo
Description: Serum samples were collected from two randomly selected pigs per pen with a total of 4 pigs per treatment at weaning (prior to access of the experimental diets) and at the end of the nursery phase when pigs reached approximately 45 lb of BW. Serum samples were analyzed for vitamin A concentration.

nursery pigs = experiment: Example 4: growth performance and livability of nursery pigs from 8 to 45 lb of BW, full vs. partial components, 65 d
Description: To evaluate the effects of dietary supplementation of the full vs. partial components of a beta-glucan/yeast cell wall/direct fed microbials/L-carnitine combination (Combo), a study was designed to feed the dietary treatments as shown Table 14 to nursery pigs from approximately 8 to 45 lb of BW post-weaning. Specifically, a total of 216 mixed-gender pigs were randomly placed in pens with 27 pigs per pen at weaning. Pens were blocked by weaning weight and pens within block were randomly assigned to one of 4 dietary treatments resulting in two pens per treatment. This study was conducted for 65 days in a 4-phase feeding program immediately after weaning.
Concentration of DFM was no less than 7.5×10^8 cfu/g of the product. Dietary concentrations of beta-glucan, yeast cell wall, DFM and carnitine were the same for each of the treatments if included in the diets.

[1] = end of nursery (approx. 45 lb BW)
[2] = 8 to 45 lb BW, Combo and Yeast/DFM 1.0 lb/ton, L-Carnitine 50 ppm
[3] = Early nursery, Phase 1 to 2, 22 d post-weaning
[4] = Entire nursery, Phase 1 to 4, 65 d post-weaning
[5] = Late nursery, Phase 3 to 4, 43 d post-weaning

## C[N+](C)(C)C[C@H](O)CC(=O)[O-] [carnitine, L-Carnitine]
Serum vitamin A; Combo and Yeast/DFM 1.0 lb/ton, L-Carnitine 50 ppm, FIG. 6
  percentage increase of serum vitamin A concentration from weaning to the end of nursery: 114%
Serum vitamin A; [1]
  serum vitamin A concentration, Max.: 0.198 ppm
  serum vitamin A concentration, Mean: 0.168 ppm
  serum vitamin A concentration, Min.: 0.143 ppm
Serum vitamin A; ~45 lb BW, Combo and Yeast/DFM 1.0 lb/ton, L-Carnitine 50 ppm, 4 pigs per treatment
  serum vitamin A concentration at the end of nursery: 0.503 ppm
Nursery pigs; [2]
  greater nursery closeout ADG compared to Control: 29%
  greater nursery closeout G/F compared to Control: 29%
Nursery pigs; Early nursery, 22 d post-weaning
  BW end of Phase 2: 13.3 ^b lb
Nursery pigs; Early nursery, Phase 1 to 2, 22 d
  ADFI: 0.68 lb/day
Nursery pigs; [3]
  ADG: 0.16 lb/day
  G:F: 0.241 ^b
  Mortality: 31.48%
Nursery pigs; Entire nursery, Phase 1 to 4, 65 d
  ADFI: 1.01 ^a lb/day
Nursery pigs; [4]
  ADG: 0.31 ª lb/day
  ADG, change compared to Control: (+29%)
  G/F: 0.282 ^b
  G/F, change compared to Control: (+29%)
  Mortality: 46.30%
Nursery pigs; Late nursery, Phase 3 to 4
  Closeout BW end of Phase 4: 43.2 lb
Nursery pigs; Late nursery, Phase 3 to 4, 43 d
  ADFI: 1.32 ª lb/day
Nursery pigs; [5]
  ADG: 0.78 ^c lb/day
  F/G: 1.69
  Mortality: 14.81%
